Results reported in patent publication US20030176390A1, “Methods of treating insulin resistance syndrome and diabetes” (priority 2001, published 2003).

Columns and labels:
[1] = tested on: rat adipocytes; assay: In vitro lipolysis assay (antilipolytic activity in rat adipocytes); type: cell-based; conditions: Rattus norvegicus, Adipocyte, 1 h; norepinephrine-stimulated lipolysis, glycerol assayed, 60 min; read-out: Lipo ec50
Protocol: Determination of Antilipolytic Activity in Rat Adipocytes
Isolation of Adipocytes from Epididymal Fat Pads
Adipose tissue is removed from anesthetized rats and rinsed twice in incubation medium (2.09 g sodium bicarbonate and 0.04 g EDTA, disodium salt, in 1 L Krebs buffer). Each rat (300-350 g) yields approximately 4 mL of adipose tissue. The adipose tissue (35 mL) is cut into small pieces with scissors and washed with incubation medium (50 mL). The mixture is poured into the barrel of a 50 mL syringe to which is attached a short piece of clamped tubing instead of a needle. The aqueous phase is allowed to drain. A second wash with incubation medium is passed through the syringe. The tissue is added to 50 mL of collagenase solution (collagenase (90 mg), bovine serum albumin (BSA) (500 mg), and 0.1 M calcium chloride solution (1 mL), in incubation medium (50 mL)) in a 1 L bottle. The mixture is shaken in an environmental at 37° C. for about 60 minutes under an atmosphere of 95% oxygen/5% carbon dioxide to effect digestion of the tissue. The dispersed cells are poured through 2 layers of cheese cloth into a 100 mL plastic beaker. The undigested clumps in the cloth are rinsed once with incubation medium (20 mL). The cells in the beaker are centrifuged in 2 plastic tubes for 30 seconds at room temperature at 300 rpm. The aqueous phase is aspirated from beneath the loosely packed layer of floating fat cells and discarded. The adipocytes are gently poured into a 250 mL plastic beaker containing 100 mL of rinse solution (1 g BSA per 100 mL incubation medium). After gentle stirring the centrifugation step is repeated. Another wash with rinse solution follows. The cells are pooled and their volume is estimated with a graduated cylinder. The adipocytes are diluted in twice their volume of assay buffer (incubation medium (120 mL), BSA (1.2 g), pyruvic acid (13 mg)).
The assay is performed in 20 mL plastic scintillation vials and the total assay volume is 4.2 mL. Assay buffer (2.5 mL), diluted adipocytes (1.5 mL), and a solution of the compound to be tested (12.3 μL) adenosine agonist (12.3 μl; varying concentration) is incubated in the environmental shaker for 15 minutes, then the reaction is started with norepinephrine solution (41.2 μL) (10 nM, in a carrier solution containing water (100 mL), BSA (4 mg), and 0.1 M EDTA (20 μL))and adenosine deaminase (1 μg/mL, 41.2 μl). After sixty minutes in the shaker the reaction is terminated by putting the vials on ice. […] The hard lipid layer is removed by aspiration and the aqueous layer is assayed for glycerol (400 μl of sample). The positive control is done in the absence of any adenosine agonist, substituting water in place of the solution to be tested.

EC50 [1] | melting point | Compound
3.07 nM | 130 °C (dec.) | OC[C@H]1O[C@@H](n2cnc3c(NC4CCN(c5ccc(Cl)nn5)C4)ncnc32)[C@H](O)[C@@H]1O (stereo partly drawn) [Example 22, (2R,3R,4S,5R)-5-hydroxymethyl-2-[6-[1-(6-chloropyridazin-3-yl)pyrrolidin-3-ylamino]-purin-9-yl]-tetrahydrofuran-3,4-diol]
178 nM | 160 °C (dec.) | Cl.Cl.OC[C@H]1C[C@@H](n2cnc3c(N[C@H]4CCNC4)ncnc32)[C@H](O)[C@@H]1O [Example 26, (1R,2S,3R,5R)-5-hydroxymethyl-3-[6-((3S)-pyrrolidin-3-ylamino)-purin-9-yl]cyclopentane-1,2-diol dihydrochloride]
3.57 nM | 110 to 111 °C | OC[C@H]1C[C@@H](n2cnc3c(N[C@H]4CCN(c5ccc(C(F)(F)F)cn5)C4)ncnc32)[C@H](O)[C@@H]1O [Example 29, (1R,2S,3R,5R)-5-hydroxymethyl-3-[6-[1-(5-trifluoromethylpyridin-2-yl)pyrrolidin-3(S)-ylamino]-purin-9-yl]cyclopentane-1,2-diol]
247 nM | 114 to 116 °C | C[C@H]1C[C@@H](n2cnc3c(N[C@H]4CCN(c5ccc(C(F)(F)F)cn5)C4)ncnc32)[C@H](O)[C@@H]1O [Example 31, (1R,2S,3R,5S)-5-methyl-3-[6-[1-(5-trifluoromethylpyridin-2-yl)pyrrolidin-3(S)-ylamino]-purin-9-yl]cyclopentane-1,2-diol]
8 nM | 169 to 171 °C | OC[C@H]1C[C@@H](n2cnc3c(N[C@H]4CCN(c5ccc(Br)cn5)C4)ncnc32)[C@H](O)[C@@H]1O [Example 32, (1R,2S,3R,5R)-3-[6-[1-(5-bromopyridin-2-yl)pyrrolidin-3(S)-ylamino]-purin-9-yl]-5-hydroxymethylcyclopentane-1,2-diol]
4.2 nM | 118 to 121 °C | OC[C@H]1C[C@@H](n2cnc3c(N[C@H]4CCN(c5ccc(Cl)cn5)C4)ncnc32)[C@H](O)[C@@H]1O [Example 33, (1R,2S,3R,5R)-3-[6-[1-(5-chloropyridin-2-yl)pyrrolidin-3(S)-ylamino]-purin-9-yl]-5-hydroxymethylcyclopentane-1,2-diol]
3.3 nM | 135 to 137 °C | OC[C@H]1C[C@@H](n2cnc3c(N[C@H]4CCN(c5cc(C(F)(F)F)ccn5)C4)ncnc32)[C@H](O)[C@@H]1O [Example 34, (1R,2S,3R,5R)-5-hydroxymethyl-3-[6-[1-(4-trifluoromethylpyridin-2-yl)pyrrolidin-3(S)-ylamino]-purin-9-yl]cyclopentane-1,2-diol]
48 nM | 110 to 112 °C | OC[C@H]1C[C@@H](n2cnc3c(N[C@H]4CCN(c5ccccn5)C4)ncnc32)[C@H](O)[C@@H]1O [Example 35, (1R,2S,3R,5R)-5-hydroxymethyl-3-[6-[1-(pyridin-2-yl)pyrrolidin-3(S)-ylamino]-purin-9-yl]cyclopentane-1,2-diol]
17.6 nM | 97 to 99 °C | OC[C@H]1C[C@@H](n2cnc3c(N[C@H]4CCN(c5ccccc5)C4)ncnc32)[C@H](O)[C@@H]1O [Example 39, (1R,2S,3R,5R)-5-hydroxymethyl-3-[6-[1-(phenyl)-pyrrolidin-3(S)-ylamino]-purin-9-yl]cyclopentane-1,2-diol]
10.5 nM | 140 °C | N#Cc1ccc(N2CC[C@H](Nc3ncnc4c3ncn4[C@@H]3C[C@H](CO)[C@@H](O)[C@H]3O)C2)cc1 [Example 40, 4-[3(S)-[9-((1R,2S,3R,5R)-1,2-dihydroxy-5-hydroxymethylcyclopent-3-yl)-9H-purin-6-ylamino]pyrrolidin-1-yl]benzonitrile]
182 nM | 119 to 122 °C | OC[C@H]1C[C@@H](n2cnc3c(N[C@H]4CCN(c5nccc6ccccc56)C4)ncnc32)[C@H](O)[C@@H]1O [Example 41, (1R,2S,3R,5R)-5-hydroxymethyl-3-[6-[1-(isoquinolin-1-yl)pyrrolidin-3(S)-ylamino]-purin-9-yl]cyclopentane-1,2-diol]
226 nM | 140 to 143 °C | COC[C@H]1C[C@@H](n2cnc3c(N[C@H]4CCN(c5ncc(C(F)(F)F)cc5Cl)C4)ncnc32)[C@H](O)[C@@H]1O [Example 44, (1R,2S,3R,5R)-3-[6-[1-(3-chloro-5-trifluoromethylpyridin-2-yl)pyrrolidin-3(S)-ylamino]-purin-9-yl]-5-methoxymethylcyclopentane-1,2-diol]
18.6 nM | 122 to 124 °C | COC[C@H]1C[C@@H](n2cnc3c(N[C@H]4CCN(c5ccc(Cl)nn5)C4)ncnc32)[C@H](O)[C@@H]1O [Example 51, (1R,2S,3R,5R)-3-[6-[1-(6-chloropyridazin-3-yl)pyrrolidin-3(S)-ylamino]-purin-9-yl]-5-methoxymethylcyclopentane-1,2-diol]
17 nM | 110 to 111 °C | COC[C@H]1C[C@@H](n2cnc3c(N[C@H]4CCN(c5ccc(Br)cn5)C4)ncnc32)[C@H](O)[C@@H]1O [Example 52, (1R,2S,3R,5R)-3-[6-[1-(5-bromopyridin-2-yl)pyrrolidin-3(S)-ylamino]-purin-9-yl]-5-methoxymethylcyclopentane-1,2-diol]
27.8 nM | 128 °C | COC[C@H]1C[C@@H](n2cnc3c(N[C@H]4CCN(c5ccc(C(F)(F)F)cc5)C4)ncnc32)[C@H](O)[C@@H]1O [Example 54, (1R,2S,3R,5R)-5-methoxymethyl-3-[6-[1-(4-trifluoromethylphenyl)pyrrolidin-3(S)-ylamino]-purin-9-yl]cyclopentane-1,2-diol]
3.3 nM | 122 to 125 °C | COC[C@H]1C[C@@H](n2cnc3c(N[C@H]4CCN(c5ccc(Cl)cc5)C4)ncnc32)[C@H](O)[C@@H]1O [Example 55, (1R,2S,3R,5R)-3-[6-[1-(4-chlorophenyl)-pyrrolidin-3(S)-ylamino]-purin-9-yl]-5-methoxymethylcyclopentane-1,2-diol]
2.4 nM | 127 to 130 °C | COC[C@H]1C[C@@H](n2cnc3c(N[C@H]4CCN(c5cccc(Cl)c5)C4)ncnc32)[C@H](O)[C@@H]1O [Example 56, (1R,2S,3R,5R)-3-[6-[1-(3-chlorophenyl)-pyrrolidin-3(S)-ylamino]-purin-9-yl]-5-methoxymethylcyclopentane-1,2-diol]
63.5 nM | 131 to 133 °C | OC[C@H]1C[C@@H](n2cnc3c(N[C@H]4CCN(c5cccc(Cl)c5)C4)ncnc32)[C@H](O)[C@@H]1O [Example 57, (1R,2S,3R,5R)-3-[6-[1-(3-chlorophenyl)-pyrrolidin-3(S)-ylamino]-purin-9-yl]-5-hydroxymethylcyclopentane-1,2-diol]
18 nM | 215 °C (dec.) | CC[C@H](C)NC(=O)[C@H]1C[C@@H](n2cnc3c(N[C@H]4CCN(c5ccc(C(F)(F)F)cn5)C4)ncnc32)[C@H](O)[C@@H]1O [Example 61, (1S,2R,3S,4R)-2,3-dihydroxy-4-{6-[1-(5-trifluoromethyl-pyridin-2-yl)-pyrrolidin-3(S)-ylamino]-purin-9-yl}-cyclopentanecarboxylic acid-1(S)-methylpropylamide]
